Results: patent US9302999B2, “Substituted triazoles as herbicides” (E. I. DU PONT DE NEMOURS AND COMPANY, priority 2012, dated 2016)

Tests used:
Type in all cases: in vivo
[1] = tested on: bermudagrass (Cynodon dactylon); experiment: Test C pre-/postemergence: bermudagrass
Summary of the method: (§1)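 Preemergence on seeds in loam/sand, postemergence on 2–18 cm (1–4-leaf) plants in peat-based medium; compounds in non-phytotoxic solvent with surfactant. After 13–15 days in greenhouse, visual rating versus controls, 0 (no effect) to 100 (complete control).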

[2] = tested on: foxtail, green (green foxtail, Setaria viridis); experiment: Test C pre-/postemergence: foxtail, green
Summary of the method: as §1

[3] = tested on: deadnettle (henbit deadnettle, Lamium amplexicaule); experiment: Test C postemergence: deadnettle
Summary of the method: (§2)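 Visual 0–100 injury score vs untreated controls (0 none, 100 complete control), taken 13–15 d after treatment. Postemergence spray on potted plants, 2–18 cm, 1–4 leaves; greenhouse.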

[4] = tested on: goosegrass (Eleusine indica); experiment: Test C pre-/postemergence: goosegrass
Summary of the method: as §1

[5] = tested on: woolly cupgrass (Eriochloa villosa); experiment: Test C pre-/postemergence: woolly cupgrass
Summary of the method: as §1

[6] = tested on: surinam grass (Brachiaria decumbens); experiment: Test C pre-/postemergence: surinam grass
Summary of the method: as §1

[7] = tested on: bromegrass, downy (downy bromegrass, Bromus tectorum); experiment: Test C pre-/postemergence: bromegrass, downy
Summary of the method: as §1

[8] = tested on: windgrass (Apera spica-venti); experiment: Test C postemergence: windgrass
Summary of the method: as §2

[9] = tested on: barley (winter barley, Hordeum vulgare); experiment: Test C postemergence: barley
Summary of the method: as §2

[10] = Postemergence, 31 g ai/ha, scale 0 to 100 (0 no effect, 100 complete control)
[11] = Postemergence, 62 g ai/ha, scale 0 to 100 (0 no effect, 100 complete control)
[12] = Postemergence, 125 g ai/ha, scale 0 to 100, 0 no effect, 100 complete control
[13] = Postemergence, 250 g ai/ha, scale 0 to 100
[14] = Preemergence, 31 g ai/ha, scale of 0 to 100, 0 is no effect, 100 is complete control
[15] = Preemergence, 62 g ai/ha, scale of 0 to 100, 0 is no effect, 100 is complete control
[16] = Preemergence, 125 g ai/ha, scale 0 to 100, 0 no effect, 100 complete control
[17] = Preemergence, 250 g ai/ha, scale 0 to 100, 0 no effect, 100 complete control
[18] = 31 g ai/ha, scale 0 to 100 (0 no effect, 100 complete control)
[19] = 62 g ai/ha, scale 0 to 100 (0 no effect, 100 complete control)
[20] = 125 g ai/ha, scale 0 to 100, 0 no effect, 100 complete control

## COc1nn(-c2ccc(C(F)(F)F)cc2)nc1Cc1ccnc(C(F)F)c1 [Compound 138]
[1]; [10]
  Plant response rating, Bermudagrass: 20
[1]; [11]
  Plant response rating, Bermudagrass: 45
[1]; [12]
  Plant response rating, Bermudagrass: 75
[1]; [13]
  Plant response rating, Bermudagrass: 95
[1]; [14]
  Plant response rating, Bermudagrass: 100
[1]; [15]
  Plant response rating, Bermudagrass: 100
[1]; [16]
  Plant response rating, Bermudagrass: 100
[1]; [17]
  Plant response rating, Bermudagrass: 100
[2]; [10]
  Plant response rating, Foxtail, Green: 35
[2]; [11]
  Plant response rating, Foxtail, Green: 85
[2]; [12]
  Plant response rating, Foxtail, Green: 90
[2]; [13]
  Plant response rating, Foxtail, Green: 90
[2]; [14]
  Plant response rating, Foxtail, Green: 90
[2]; [15]
  Plant response rating, Foxtail, Green: 95
[2]; [16]
  Plant response rating, Foxtail, Green: 95
[2]; [17]
  Plant response rating, Foxtail, Green: 95
[3]; [18]
  Plant response rating, Deadnettle: 98
[3]; [19]
  Plant response rating, Deadnettle: 100
[3]; [20]
  Plant response rating, Deadnettle: 100
[3]; 250 g ai/ha, scale 0 to 100
  Plant response rating, Deadnettle: 100
[4]; [10]
  Plant response rating, Goosegrass: 5
[4]; [11]
  Plant response rating, Goosegrass: 25
[4]; [12]
  Plant response rating, Goosegrass: 50
[4]; [13]
  Plant response rating, Goosegrass: 80
[4]; [14]
  Plant response rating, Goosegrass: 100
[4]; [15]
  Plant response rating, Goosegrass: 100
[4]; [16]
  Plant response rating, Goosegrass: 100
[4]; [17]
  Plant response rating, Goosegrass: 100
[5]; [10]
  Plant response rating, Cupgrass, Woolly: 50
[5]; [11]
  Plant response rating, Cupgrass, Woolly: 55
[5]; [12]
  Plant response rating, Cupgrass, Woolly: 55
[5]; [13]
  Plant response rating, Cupgrass, Woolly: 85
[5]; [14]
  Plant response rating, Cupgrass, Woolly: 60
[5]; [15]
  Plant response rating, Cupgrass, Woolly: 90
[5]; [16]
  Plant response rating, Cupgrass, Woolly: 95
[5]; [17]
  Plant response rating, Cupgrass, Woolly: 100
[6]; [10]
  Plant response rating, Surinam Grass: 45
[6]; [11]
  Plant response rating, Surinam Grass: 50
[6]; [12]
  Plant response rating, Surinam Grass: 65
[6]; [14]
  Plant response rating, Surinam Grass: 55
[6]; [15]
  Plant response rating, Surinam Grass: 80
[6]; [16]
  Plant response rating, Surinam Grass: 85
[6]; [17]
  Plant response rating, Surinam Grass: 100
[7]; [10]
  Plant response rating, Bromegrass, Downy: 40
[7]; [11]
  Plant response rating, Bromegrass, Downy: 45
[7]; [12]
  Plant response rating, Bromegrass, Downy: 50
[7]; [13]
  Plant response rating, Bromegrass, Downy: 65
[7]; [14]
  Plant response rating, Bromegrass, Downy: 10
[7]; [15]
  Plant response rating, Bromegrass, Downy: 30
[7]; [16]
  Plant response rating, Bromegrass, Downy: 60
[7]; [17]
  Plant response rating, Bromegrass, Downy: 80
[8]; [18]
  Plant response rating, Windgrass: 50
[8]; [19]
  Plant response rating, Windgrass: 50
[8]; [20]
  Plant response rating, Windgrass: 55
[8]; 250 g ai/ha, scale 0 to 100
  Plant response rating, Windgrass: 80
[9]; [18]
  Plant response rating, Barley: 10
[9]; [19]
  Plant response rating, Barley: 30
[9]; [20]
  Plant response rating, Barley: 35
[9]; 250 g ai/ha, scale 0 to 100
  Plant response rating, Barley: 60

## COc1nn(-c2cccc(F)c2)nc1Cc1ccnc(C(F)(F)F)c1 [Compound 139]
[1]; [10]
  Plant response rating, Bermudagrass: 35
[1]; [11]
  Plant response rating, Bermudagrass: 40
[1]; [12]
  Plant response rating, Bermudagrass: 55
[1]; [13]
  Plant response rating, Bermudagrass: 80
[1]; [14]
  Plant response rating, Bermudagrass: 98
[1]; [15]
  Plant response rating, Bermudagrass: 100
[1]; [16]
  Plant response rating, Bermudagrass: 100
[1]; [17]
  Plant response rating, Bermudagrass: 100
[2]; [10]
  Plant response rating, Foxtail, Green: 95
[2]; [11]
  Plant response rating, Foxtail, Green: 95
[2]; [12]
  Plant response rating, Foxtail, Green: 100
[2]; [13]
  Plant response rating, Foxtail, Green: 100
[2]; [14]
  Plant response rating, Foxtail, Green: 90
[2]; [15]
  Plant response rating, Foxtail, Green: 90
[2]; [17]
  Plant response rating, Foxtail, Green: 90
[3]; [18]
  Plant response rating, Deadnettle: 95
[3]; [19]
  Plant response rating, Deadnettle: 95
[3]; [20]
  Plant response rating, Deadnettle: 98
[3]; 250 g ai/ha, scale 0 to 100
  Plant response rating, Deadnettle: 100
[4]; [10]
  Plant response rating, Goosegrass: 15
[4]; [11]
  Plant response rating, Goosegrass: 40
[4]; [12]
  Plant response rating, Goosegrass: 60
[4]; [13]
  Plant response rating, Goosegrass: 80
[4]; [14]
  Plant response rating, Goosegrass: 98
[4]; [15]
  Plant response rating, Goosegrass: 100
[4]; [16]
  Plant response rating, Goosegrass: 100
[4]; [17]
  Plant response rating, Goosegrass: 100
[5]; [10]
  Plant response rating, Cupgrass, Woolly: 15
[5]; [11]
  Plant response rating, Cupgrass, Woolly: 30
[5]; [12]
  Plant response rating, Cupgrass, Woolly: 50
[5]; [14]
  Plant response rating, Cupgrass, Woolly: 30
[5]; [15]
  Plant response rating, Cupgrass, Woolly: 40
[5]; [16]
  Plant response rating, Cupgrass, Woolly: 75
[5]; [17]
  Plant response rating, Cupgrass, Woolly: 90
[6]; [10]
  Plant response rating, Surinam Grass: 10
[6]; [11]
  Plant response rating, Surinam Grass: 35
[6]; [12]
  Plant response rating, Surinam Grass: 35
[6]; [13]
  Plant response rating, Surinam Grass: 40
[6]; [14]
  Plant response rating, Surinam Grass: 15
[6]; [15]
  Plant response rating, Surinam Grass: 65
[6]; [16]
  Plant response rating, Surinam Grass: 85
[6]; [17]
  Plant response rating, Surinam Grass: 98
[7]; [10]
  Plant response rating, Bromegrass, Downy: 5
[7]; [11]
  Plant response rating, Bromegrass, Downy: 10
[7]; [12]
  Plant response rating, Bromegrass, Downy: 15
[7]; [13]
  Plant response rating, Bromegrass, Downy: 30
[7]; [14]
  Plant response rating, Bromegrass, Downy: 0
[7]; [15]
  Plant response rating, Bromegrass, Downy: 20
[7]; [17]
  Plant response rating, Bromegrass, Downy: 85
[8]; [18]
  Plant response rating, Windgrass: 50
[8]; [19]
  Plant response rating, Windgrass: 70
[8]; [20]
  Plant response rating, Windgrass: 80
[9]; [18]
  Plant response rating, Barley: 5
[9]; [19]
  Plant response rating, Barley: 10
[9]; [20]
  Plant response rating, Barley: 35
[9]; 250 g ai/ha, scale 0 to 100
  Plant response rating, Barley: 40
